Laboratory results reported in patent publication US6383773B2, “Penicillin conversion” (Massachusetts Institute of Technology, priority 1998, dated 2002).

Assays:
[1] = system: S. clavuligerus or C. acremonium expandase enzymes; conditions: cited from earlier work; for in vitro substrate: suggested by Baldwin et al. 1987, subsequent work failed to confirm; for ability to expand: in vitro (Bowers 1984; Baldwin 1987; Shibata 1996)
[2] = target: T1, S. clavuligerus expandase (Streptomyces clavuligerus, UniProt P18548); experiment: Penicillin ring expansion by cell-free S. clavuligerus expandase extracts, paper disc-agar diffusion bioassay; type: biochemical; conditions: 4 mg/ml extract protein; for Ring expansion, size of zones of inhibition: 2 mg/ml substrate (penicillin mX and octanoyl-6-APA 3 mg/ml), 2 hours; for Inhibition Zone Diameter: 2 hours of reaction, 250 μl in bioassay (E. coli ESS, penicillinase)
T1 construct: endogenous in cells; host or cells: S. clavuligerus mutant NP1, crude cell-free extract
Protocol: Preparation of Cell-free Extracts: Fermentation broths were centrifuged at 8,000×g and 4° C. for 10 min. Pellets were washed twice using 50 mM Tris-HCI supplemented with 0.1 mM dithiothreitol (DTT). The cells were resuspended in the same buffer and disrupted by four 25-sec. sonication treatments (power setting 5 and duty cycle 50%), in an ice-water bath using a Branson 350 sonifier (Branson Sonic Power Co., Danbury, Conn.). Cell debris was removed by centrifugation (14,000×g, 30 min., 4° C.). The resulting extracts containing 8-10 mg protein/ml were placed on ice and utilized immediately. Protein concentrations were measured using the Bio-Rad protein assay (Bio-Rad, Hercules, Calif.). Bovine serum albumin was used as standard.
Ring Expansion Reaction: We defined ring expansion reaction conditions as modifications of the standard reaction mixture for expandase reactions described by Maeda et al. (Maeda et al., Enzyme Microb. Technol. 17:231-34, 1995) except that penicillin G was used a substrate instead of penicillin N. Additions were made following the order established by Shen et al. (Shen et al., Enzyme Microb. Technol. 6:402-404, 1984. Reaction mixtures were incubated in test tubes (cell-free extract) or 250 ml baffled flasks (resting cells) at 220 rpm, 30° C. Reactions containing the protein extract were stopped at various times (see Table 1 and Figure Legends) by mixing 0.5 ml of assay solution with 0.5 ml of methanol. In the case of resting cells, samples were centrifuged to remove cells and supernatants were transferred to new tubes. Expandase activity was detected by paper disc-agar diffusion bioassay.
Detection of Expandase Activity: As mentioned above, expandase activity was detected by assaying production of a growth-inhibitory zone in a paper disc-agar diffusion bioassay. Paper discs were saturated with 200 μl of the reaction mixture (cell-free extracts or supernatant (resting cells) as follows. Two discs were superimposed and four 50 μl samples were applied. After each application, the discs were allowed to dry for 20 min at 37° C. under a laminar hood and, finally, they were placed on LB (1% tryptone, 0.5% NaCl, 0.5% yeast extract, 0.1% glucose) 0.8% agar medium seeded with E. coli ESS (a β-lactam supersensitive mutant), and the plates were incubated overnight at 37° C. The formation of DAOG and/or other cephalosporin(s) was determined by including 50,000 IU/ml of penicillinase (Difco Bacto penase concentrate, Difco Laboratories, Detroit, Mich.) in the assay plates. This penicillinase is a narrow spectrum β-lactamase that attacks penicillins but not cephalosporins. The diameters of zones of growth inhibition were measured and quantified with a calibration curve using DAOG as standard.
Ring Expansion of Other Penicillins by Cell-free Extracts: We tested our reaction conditions for their ability to support ring expansion on other penicillin substrates and found detectable expansion with each of the 15 substrates that we tested. […] The reactions contained 4 mg/ml extract (protein concentration), 50 mM Tris-HCl pH 7.4, 1.8 mM FeSO4, 1.28 mM α-ketoglutarate, 8 mM MgSO4, 8 mM KCl, 4 mM ascorbic acid, 14 mM DTT, and 2 mg/ml substrate (except for penicillin mX and octanoyl-6-APA, which were used at 3 mg/ml). Samples were centrifuged at 12K rpm for 5 minutes after 2 hours of reaction. 250 μl of reaction mixture was used in each bioassay.

[3] = target: T1, S. clavuligerus expandase; conditions: literature reports (Jensen 1982; Dotzlaf 1989; Yeh 1994; Maeda 1995); cited from earlier work
C. acremonium expandase = target: T2, C. acremonium expandase (Hapsidospora chrysogena, UniProt P11935); conditions: cited from earlier work; for substrate for expandase activity: crude extracts (Kohsaka et al. 1976; Demain et al.); for ring expansion: partially purified enzyme (Kupka et al. 1983)
T2 sequence (P11935 1-332): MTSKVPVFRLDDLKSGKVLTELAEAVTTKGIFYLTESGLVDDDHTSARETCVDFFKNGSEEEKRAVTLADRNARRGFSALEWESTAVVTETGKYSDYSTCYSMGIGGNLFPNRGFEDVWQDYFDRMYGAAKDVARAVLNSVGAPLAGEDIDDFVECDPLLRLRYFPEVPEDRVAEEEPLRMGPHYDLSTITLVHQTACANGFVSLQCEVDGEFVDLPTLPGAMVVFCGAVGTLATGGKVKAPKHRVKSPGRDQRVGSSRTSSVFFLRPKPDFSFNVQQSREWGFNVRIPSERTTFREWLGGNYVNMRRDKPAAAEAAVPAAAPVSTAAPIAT

[4] = target: T3, expandase from S. clavuligerus (Streptomyces clavuligerus, UniProt P18548); experiment: Ring expansion by cell-free extracts of S. lividans transformant pHJ11 (Example 7); type: biochemical; conditions: pHJ11 cell-free extract 6 mg/ml protein, substrate 5.6 mM, after 4 h of reaction
T3 construct: made in house; host or cells: S. lividans 1326 transformed with pHJ11, crude cell-free extract
Protocol: (§1) Microorganism, Medium and Culture Conditions: S. lividans 1326 was used in all experiments. Cultures were grown in 250 ml baffled flasks containing 40 ml of MST medium. Each flask was inoculated with 50 μl of a spore suspension (prepared and stored at −80° C. in 20% glycerol) and incubated at 30° C., 250 rpm, for 48 h.
(§2) Plasmids: The plasmid pUL702-202a was a gift from J. F. Martin (University of León, Spain). This vector harboured a 4.3 Kb BglII fragment containing the epimerase and expandase genes from Nocardia lactamdurans inserted at the BglII site on pIJ702. The plasmid pHJ11 was constructed by cloning a 3 Kb BglII fragment containing the expandase gene from S. clavuligerus 3585 into pIJ702 at the BglII site.
(§3) Ring Expansion Reaction: The ring expansion mixture contained 1.8 mM FeSO4, 1.28 mM α-ketoglutarate, 6 mg/ml protein (cell-free extract), 8 mM KCl, 8 mM MgSO4, 14 mM DTT and 50 mM TrisHCl (pH 7.4) in a final volume of 2.5 ml. Substrate concentration was 5.6 mM. Additions were made following the order established by Shen et al. (Enzyme Microb. Technol. 6:402-404, 1984). Reaction mixtures were incubated in test tubes at 220 rpm, 30° C. At different times, 0.5 ml samples were taken and the reaction was stopped by adding 0.5 ml of methanol. […] Biotransformation activity was detected by paper disc-agar diffusion bioassay. […]

[5] = target: T4, expandase from N. lactamdurans (Amycolatopsis lactamdurans, UniProt Q03047); experiment: Ring expansion by cell-free extracts of S. lividans containing pUL702-202a (Example 7); type: biochemical; conditions: S. lividans pUL702-202a cell-free extract 6 mg/ml protein, substrate 5.6 mM
T4 construct: made in house; host or cells: S. lividans 1326 transformed with pUL702-202a, crude cell-free extract
Protocol: as §1, §2, §3

T1 sequence (P18548 whole entry, the tested form may be a part): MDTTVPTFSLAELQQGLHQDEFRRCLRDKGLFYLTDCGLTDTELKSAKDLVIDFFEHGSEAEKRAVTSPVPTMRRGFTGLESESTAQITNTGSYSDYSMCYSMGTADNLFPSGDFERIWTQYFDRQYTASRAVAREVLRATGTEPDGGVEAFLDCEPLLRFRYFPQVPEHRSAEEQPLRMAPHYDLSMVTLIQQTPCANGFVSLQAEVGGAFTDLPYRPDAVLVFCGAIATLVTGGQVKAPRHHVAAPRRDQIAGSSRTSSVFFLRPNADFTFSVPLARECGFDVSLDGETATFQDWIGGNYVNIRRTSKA
T3 sequence (P18548 whole entry): as the sequence (P18548 whole entry, the tested form may be a part) above
T4 sequence (Q03047 whole entry): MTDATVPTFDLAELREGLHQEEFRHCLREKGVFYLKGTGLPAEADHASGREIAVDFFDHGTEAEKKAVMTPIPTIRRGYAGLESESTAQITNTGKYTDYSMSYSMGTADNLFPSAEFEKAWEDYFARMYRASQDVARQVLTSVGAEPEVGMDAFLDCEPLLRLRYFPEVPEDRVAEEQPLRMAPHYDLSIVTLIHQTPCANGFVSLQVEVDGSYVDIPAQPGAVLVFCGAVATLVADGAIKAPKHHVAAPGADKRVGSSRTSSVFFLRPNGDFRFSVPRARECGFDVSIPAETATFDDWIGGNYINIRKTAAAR

Compound	Ring expansion, size of zones of inhibition [2]	Inhibition Zone Diameter ([2]; 2 mg/ml substrate) [mm]	ring expansion [3]	further results
glutamyl-6-APA				in vitro substrate [1]: at very low levels
CCCCCCCCCC(=O)NC1C(=O)N2C1SC(C)(C)C2C(=O)O (stereo not shown) [Decanoyl-6-APA, decanoyl-6-APA]	smaller zones	7		
CC1(C)S[C@@H]2[C@H](NC(=O)CCC[C@@H](N)C(=O)O)C(=O)N2[C@H]1C(=O)O [penicillin N]			expands the ring	substrate for expandase activity (C. acremonium expandase): substrates
CCCCCC(=O)NC1C(=O)N2[C@@H]1SC(C)(C)[C@@H]2C(=O)O (stereo partly shown) [Hexanoyl-6-APA, hexanoyl-6-APA]	intermediate size zones	19.5		
CCCCC(=O)NC1C(=O)N2[C@@H]1SC(C)(C)[C@@H]2C(=O)O (stereo partly shown) [Valeryl-6-APA, valeryl-6-APA]	intermediate size zones	15		
CCCCCCCC(=O)N[C@@H]1C(=O)N2[C@@H]1SC(C)(C)[C@@H]2C(=O)O [Octanoyl-6-APA, octanoyl-6-APA]	intermediate size zones			Inhibition Zone Diameter ([2]; 3 mg/ml substrate): 16 mm
CCCCCCCC(=O)N[C@@H]1C(=O)N2[C@@H]1SC(C)(C)[C@@H]2C(=O)O [penicillin K]			not	
CCCCCCCCC(=O)NC1C(=O)N2C1SC(C)(C)C2C(=O)O (stereo not shown) [Nonanoyl-6-APA, nonanoyl-6-APA]	smaller zones	10.5		
CC1(C)S[C@@H]2[C@H](N)C(=O)N2[C@H]1C(=O)O [6-aminopenicillanic acid]				substrate for expandase activity (C. acremonium expandase): not
CC1(C)SC2C(NC(=O)Cc3cccs3)C(=O)N2C1C(=O)O (stereo not shown) [2-Thiophenylacetyl-6-APA, 2-thiophenylacetyl-6-APA]	Large zones of inhibition	32		
D-carboxymethylcysteinyl-6-APA				ability to expand [1]: some ability
CCCCCCC(=O)NC1C(=O)N2[C@@H]1SC(C)(C)[C@@H]2C(=O)O (stereo partly shown) [Heptanoyl-6-APA, heptanoyl-6-APA]	intermediate size zones	16.5		
D-glutamyl-6-APA			not	in vitro substrate [1]: at very low levels
CC1(C)S[C@@H]2[C@H](NC(=O)[C@H](N)c3ccccc3)C(=O)N2[C@H]1C(=O)O [Ampicillin, ampicillin]	intermediate size zones	17	not	production of cephalosporins [4]: about 1.5 μg/ml; ring expansion [5]: expansion was only observed when penicillin G was used as substrate; ring expansion (C. acremonium expandase): does not expand
CC1(C)S[C@@H]2[C@H](NC(=O)COc3ccccc3)C(=O)N2[C@H]1C(=O)O [Penicillin V, penicillin V]	smaller zones	7.5	not	
CC1(C)S[C@@H]2[C@H](NC(=O)Cc3cccc(C(=O)O)c3)C(=O)N2[C@H]1C(=O)O [m-carboxyphenylacetyl-6-APA]			not	in vitro substrate [1]: at very low levels
CCCC(=O)NC1C(=O)N2C1SC(C)(C)C2C(=O)O (stereo not shown) [Butyryl-6-APA, butyryl-6-APA]	intermediate size zones	17.5	not	
CCCCCC(=O)N[C@@H]1C(=O)N2[C@@H]1SC(C)(C)[C@@H]2C(=O)O [penicillin dihydroF]			not	
CC1(C)S[C@@H]2[C@H](NC(=O)Cc3ccc(O)cc3)C(=O)N2[C@H]1C(=O)O [Penicillin X, penicillin X]	Large zones of inhibition	30.5		
CC/C=C/CC(=O)N[C@@H]1C(=O)N2[C@@H]1SC(C)(C)[C@@H]2C(=O)O [Penicillin F, penicillin F]	intermediate size zones	21		
CC1(C)S[C@@H]2[C@H](NC(=O)CCCCC(=O)O)C(=O)N2[C@H]1C(=O)O [Adipyl-6-APA, adipyl-6-APA]	intermediate size zones	20	not	ability to expand [1]: some ability; ring expansion (C. acremonium expandase): does not expand
